Results on one compound are retold here after patent US20050137194A1, “Combination of selected opioids with other active compounds for treatment of urinary incontinence” (Gruenenthal GmbH, priority 2002, published 2005).

One assay deals with naive female rats. In words: Cystometry test system on narcotized naive rats (suppression of spontaneous bladder contractions). It counts as in vivo, rat. To be noted: Rattus norvegicus, iv, 10 min; i.v. cumulative; mean of at least 2 experiments; read-out: Lowest dose at which for the first time contractions were absent over a period of 10 minutes. As for the experimental part:
The cystometric investigation on naive female rats was carried out in accordance with the method of Kimura et al. (Kimura et al., 1996, Int. J. Urol. 3: 218-227). The abdomen of narcotized, ventilated rats is opened up and the ureter is ligated. The urine is drained from the kidneys. A catheter is inserted into the bladder and fixed. […] After stable starting values have been reached, the test substance is administered i.v. in a cumulative manner. Influencing of the bladder function manifests itself via suppression of the spontaneous contractions. In this context, the absence of contractions over a period of 10 min is a parameter for the suppression.
With all the substances listed here, a suppression of the spontaneous contractions was measurable in the rats, table 3 showing the mean of the lowest dose of at least 2 experiments at which for the first time contractions were absent over a period of 10 minutes.
With all the substances listed here, a suppression of the spontaneous contractions was measurable in the rats, table 4 showing the mean of the lowest dose of at least 2 experiments at which for the first time contractions were absent over a period of 10 minutes.
With all the substances listed here, a suppression of the spontaneous contractions was measurable in the rats, table 5 showing the mean of the lowest dose of at least 2 experiments at which for the first time contractions were absent over a period of 10 minutes. […]

The subject of a further assay is rat. The conditions noted are these: rat model of rhythmic bladder contractions; Nippon-Shinyaku, WO 98/46216; cited from earlier work.

`COc1cccc(C2(O)CCCCC2CN(C)C)c1` (racemic) [Compound 23, rac-tramadol, reference compound]: the minimal effective dose in the assay on naive female rats was 5.3 mg/kg. Further, in the assay with rat, the “effect on bladder function (in words)” value is on record as “positive effect on bladder function”.
